A short description of assay [1]: Inhibition of Na(+)/K(+) ATPase.
Assay [2] concerns HeLa. In words: Cytotoxicity against human HeLa cells at 50 ug/mL after 3 days by MTT assay. In kind it is functional, cell-based. In general terms: Tetrazolium assays rely on reduction of a dye to a coloured formazan, in cell work by metabolically active cells.
In assay [3] the test system is PC-12. In words: Induction of neurite outgrowth in rat PC12 cells at 100 uM after 2 days by phase-contrast microscopy. Type of assay: functional, cell-based.
In assay [4] the test system is PC-12. In words: Induction of neurite outgrowth in rat PC12 cells. Type of assay: functional, cell-based.

Each structure is given as a SMILES string. The source made the active and inactive calls. The calls are words filed in the database; no cut-off is given here.

In the case of `O=C(O)/C(=C1/OCO/C1=C(/C(=O)O)c1ccccc1)c1ccccc1`, the outcome in assay [1] was Active.

With `C=C1CO[C@H]2[C@@H]3C(=O)C[C@@H](C(C)C)[C@]3(C)C[C@H]3OC(=O)C[C@@]3(C)[C@@]12O`, the outcome in assay [2] was inactive. In addition, the outcome in assay [3] was Active.

`CC(C)C1=C2[C@H]3CC=C(C=O)CC(=O)[C@]3(C)CC[C@@]2(C(=O)O)CC1`: the outcome in assay [4] was inactive. In the case of `C=C(CO)[C@]12C=C3C(=O)C[C@@H](C(C)C)[C@]3(C)C[C@@H](O)[C@@]1(C)CC(=O)O2`, the result in assay [2] was inactive. In addition, the outcome in assay [3] was Active.

Take `CO[C@H]1[C@H]2[C@@H](O)O[C@@H]1[C@]1(C)CC[C@@]3(C(=O)O)CCC(C(C)C)=C3[C@H]1C[C@H]2OC`: the outcome in assay [4] was inactive. Take `C=C(CO)[C@@]1(O)C=C2C(=O)C[C@@H](C(C)C)[C@]2(C)C[C@H]2OC(=O)C[C@]21C`: the outcome in assay [2] was inactive. The outcome in assay [3] was Active.

These data come from ChEMBL document CHEMBL1147264, “Tricholomalides A-C, new neurotrophic diterpenes from the mushroom Tricholoma sp” (J Nat Prod, 2003).
